Assay results as given in patent US20180352814A1 (priority 2015, published 2018).

Key:
Type in all cases: in vivo
[1] = test system: tomato late blight fungus (Phytophthora infestans); settings: 500 ppm foliage spray; tomato variety PATIO; inoculated 1 day after spraying
[2] = test system: soybean frogeye leaf spot (Cercospora sojina) fungus; assay: Test Example 15: Control Test on Soybean Frogeye Leaf Spot (Cercospora sojina); settings: 200 ppm foliage spray 5 days after inoculation; soybean cultivar TACHINAGAHA
Description: (§1) The non-treatment in Test Examples 5 to 20 means that foliage application of a mixture of a preparation containing the present compound and water was not performed.
Control Test on Soybean Frogeye Leaf Spot (Cercospora sojina)
Each of plastic pots was filled with soil and soybean (cultivar: TACHINAGAHA) was sowed and grown in a greenhouse for 13 days. Thereafter, an aqueous suspension containing spores of soybean frogeye leaf spot (Cercospora sojina) fungus was sprayed to inoculate the spores. After inoculation, the soybean was at first left to stand in a greenhouse at 23° C. in the daytime under high humidity condition for 4 days, and cultivated in a greenhouse at 23° C. for 1 day. Then, the present compound 11 formulated in accordance with the method mentioned in Formulation Example 6 was mixed with water so as to adjust the concentration to 200 ppm, and the mixture was sprayed over stems and leaves of the soybean so that it sufficiently adhered to the surface of the leaves of the soybean. After spraying, the soybean was air-dried and cultivated in a greenhouse at 24° C. during the day and 20° C. at night for 21 days, and then the area of lesion spots was investigated.

[3] = test system: cucumber powdery mildew fungus (Sphaerotheca fuliginea); assay: Test Example 20: Control Test on Cucumber Powdery Mildew (Sphaerotheca fuliginea); settings: 200 ppm foliage spray; cucumber cultivar SAGAMI HANJIRO; inoculated 1 day after spraying
Description: as §1
Control Test on Cucumber Powdery Mildew (Sphaerotheca fuliginea)
Each of plastic pots was filled with soil and cucumber (cultivar; SAGAMI HANJIRO) was sowed and grown in a greenhouse for 12 days. Then, the present compound 41 formulated in accordance with the method mentioned in Formulation Example 6 was mixed with water so as to adjust the concentration to 200 ppm, and the mixture was sprayed over stems and leaves of the cucumber so that it sufficiently adhered to the surface of the leaves of the cucumber. After spraying, the […] was air-dried. After the cucumber was left to stand in a greenhouse at 24° C. during the day and 20° C. at night for 1 day, the spores of the cucumber seedling (cultivar; SAGAMI HANJIRO) infected by cucumber powdery mildew fungus were sprinkling-inoculated. After inoculation, the cucumber was cultivated in a greenhouse at 24° C. during the day and 20° C. at night for 8 days, and then the area of lesion spots was investigated.

[4] = test system: soybean rust fungus (Phakopsora pachyrhizi); assay: Test Example 10: Control Test on Soybean Rust (Phakopsora pachyrhizi), spraying before inoculation; settings: 200 ppm foliage spray; soybean cultivar KUROSENGOKU; inoculated 4 days after spraying
Description: as §1
(§2) Control Test on Soybean Rust (Phakopsora pachyrhizi)
Each of plastic pots was filled with soil and soybean (cultivar: KUROSENGOKU) was sowed and grown in a greenhouse for 13 days. Then, the present compound 1 to 9, 11 to 21, 29 to 37, or 44 formulated in accordance with the method mentioned in Formulation Example 6 was mixed with water so as to adjust the concentration to 200 ppm, and the mixture was sprayed over stems and leaves so that it sufficiently adhered to the surface of the leaves of the soybean. After spraying, the soybean was air-dried. After 4 days, an aqueous suspension containing spores of soybean rust fungus was sprayed to inoculate the spores. After inoculation, the soybean was at first left to stand in a greenhouse at 23° C. in the daytime and 20° C. at night under high humidity condition for 1 day, and then cultivated in a greenhouse for 10 days, and the area of lesion spots was investigated. As a result, the area of lesion spots on the soybean treated with the present compound 1 to 9, 11 to 21, 29 to 37, or 44 was 30% or less of that on a non-treated soybean.

[5] = test system: soybean rust fungus (Phakopsora pachyrhizi); assay: Test Example 9: Control Test on Soybean Rust (Phakopsora pachyrhizi), spraying after inoculation; settings: 200 ppm foliage spray 3 days after inoculation; soybean cultivar KUROSENGOKU
Description: as §1, §2
Each of plastic pots was filled with soil and soybean (cultivar: KUROSENGOKU) was sowed and grown in a greenhouse for 10 days. Thereafter, an aqueous suspension containing spores of soybean rust fungus was sprayed to inoculate the spores. After inoculation, the soybean was at first left to stand in a greenhouse at 23° C. in the daytime and 20° C. at night under high humidity condition for 1 day and cultivated in a greenhouse at room temperature for 2 days. Then, the present compound 1 to 9, 11 to 23, 26 to 33, 35 to 41, or 44 formulated in accordance with the method mentioned in Formulation Example 6 was mixed with water so as to adjust the concentration to 200 ppm, and the mixture was sprayed over stems and leaves of the soybean so that it sufficiently adhered to the surface of the leaves of the soybean. After spraying, the soybean was air-dried and cultivated in a greenhouse for 8 days, and then the area of lesion spots was investigated.

CCOCCNC(=O)Oc1ccc(-c2noc(C(F)(F)F)n2)cc1 [compound 9]
area of lesion spots on the treated tomato relative to that on a non-treated tomato [1]: ≤ 30%

COCCN(C)C(=O)Oc1ccc(-c2noc(C(F)(F)F)n2)cc1F [compound 11]
area of lesion spots on the treated soybean relative to that on a non-treated soybean [2]: ≤ 30%

CC1(C(=O)Nc2ccc(-c3noc(C(F)(F)F)n3)cc2)CC1 [compound 41]
area of lesion spots on the treated cucumber relative to that on a non-treated cucumber [3]: ≤ 30%

O=C(Oc1ccc(-c2noc(C(F)(F)F)n2)cc1)C1CCCCC1 [compound 44]
area of lesion spots on the treated soybean relative to that on a non-treated soybean [4]: ≤ 30% | area of lesion spots on the treated soybean relative to that on a non-treated soybean [5]: ≤ 30%
